According to article PMC9189845, “Structure–Activity Relationships of 8-Hydroxyquinoline-Derived Mannich Bases with Tertiary Amines Targeting Multidrug-Resistant Cancer” (Journal of Medicinal Chemistry, 2022):
Read-outs that look alike come from different tables or passages of the source.

Legend:
MES-SA cells = assay: PrestoBlue viability assay, MES-SA cells; details: Homo sapiens, MES-SA
A431-B1 cells = assay: PrestoBlue viability assay, A431-B1 (A431-ABCB1) cells
MES-SA/Dx5 cells = assay: PrestoBlue viability assay, MES-SA/Dx5 cells (MDR, P-gp positive); details: for IC50: Homo sapiens; for SR_TQ: selectivity ratio MES-SA vs MES-SA/Dx5, with TQ; for SR: selectivity ratio MES-SA vs MES-SA/Dx5, without TQ
A431 cells = assay: PrestoBlue viability assay, A431 cells
[1] = 72 h, read-out: IC50 / μM MES-SA, absence of TQ, 72 h incubation
[2] = read-out: IC50 / μM MES-SA (values in parentheses), presence of 1 μM P-gp inhibitor tariquidar (TQ)
[3] = read-out: pIC50 value MES-SA+TQ, MES-SA cells, with TQ (converted)
[4] = read-out: pIC50 value MES-SA, MES-SA cells, without TQ (converted)
[5] = 72 h, read-out: IC50 / µM A431-B1, 72 h incubation
[6] = read-out: pIC50 A431-B1, SARM figure (converted)
[7] = MES-SA/Dx5, 72 h, read-out: IC50 / μM MES-SA/Dx5, absence of TQ, 72 h incubation
[8] = MES-SA/Dx5, read-out: IC50 / μM MES-SA/Dx5 (values in parentheses), presence of 1 μM P-gp inhibitor tariquidar (TQ)
[9] = MES-SA/Dx5, read-out: pIC50 value MES-SA/Dx5 + TQ, MES-SA/Dx5 cells, with TQ (converted)
[10] = MES-SA/Dx5, read-out: pIC50 value MES-SA/Dx5, MES-SA/Dx5 cells, without TQ (converted)
[11] = Homo sapiens, A-431, 72 h, read-out: IC50 / µM A431, 72 h incubation
[12] = Homo sapiens, A-431, read-out: pIC50 A431, SARM figure (converted)
[13] = read-out: pIC50 MES-SA, absence of TQ (converted), SARM figure
[14] = read-out: pIC50 MES-SA_TQ, presence of 1 μM TQ (converted), SARM figure
[15] = MES-SA/Dx5, read-out: pIC50 Dx5_TQ, presence of 1 μM TQ (converted), SARM figure
[16] = read-out: IC50 / µM A431, 72 h incubation

SMILES | IC50 (MES-SA cells; [1]) [µM] | IC50 (MES-SA cells; [2]) [µM] | IC50 (MES-SA cells; [3]) [µM] | IC50 (MES-SA cells; [4]) [µM] | IC50 (A431-B1 cells; [5]) [µM] | IC50 (A431-B1 cells; [6]) [µM] | IC50 (MES-SA/Dx5 cells; [7]) [µM] | IC50 (MES-SA/Dx5 cells; [8]) [µM] | IC50 (MES-SA/Dx5 cells; [9]) [µM] | IC50 (MES-SA/Dx5 cells; [10]) [µM] | SR_TQ (MES-SA/Dx5 cells) | SR (MES-SA/Dx5 cells) | IC50 (A431 cells; [11]) [µM] | IC50 (A431 cells; [12]) [µM] | other results
COCc1cc(CN2CCCC2)c(O)c2ncccc12 [Compound 17] | 11.1 ± 1.78 | 10.5 ± 0.17 | 10.5 | 11 | 4.05 ± 0.07 | 4.07 | 1.37 ± 0.26 | 3.59 ± 0.53 | 3.55 | 1.35 | 2.92 | 8.09 | 53.2 ± 6.49 | 52.5 | –
Oc1c(CN2CCOCC2)cc(Br)c2cccnc12 [Compound 30] | 1.13 ± 0.13 | 1.32 ± 0.01 | 1.32 | 1.12 | 2.89 ± 0.25 | 2.88 | 0.46 ± 0.04 | 0.85 ± 0.06 | 0.851 | 0.457 | 1.54 | 2.46 | 9.3 ± 3.05 | 8.91 | –
CCOCc1cc(CN2CCCCC2)c(O)c2ncccc12 [Compound 22] | 8.77 ± 1.07 | 9.13 ± 0.32 | 9.12 | 8.71 | 4.17 ± 1.49 | 3.89 | 0.79 ± 0.14 | 7.08 ± 0.23 | 7.08 | 0.776 | 1.29 | 11.12 | 25.2 ± 8.88 | 23.4 | –
Oc1c(C(c2ccncc2)N2CCCCC2)ccc2cccnc12 (centres unmarked) [Compound 96] | 22.7 ± 0.86 | – | – | 22.9 | – | 4.57 | 14 ± 1.5 | – | – | 13.8 | – | 1.62 | – | 35.5 | IC50 (MES-SA cells; [13]): 15.5 µM; IC50 (MES-SA cells; [14]): 13.8 µM; IC50 (MES-SA/Dx5 cells; MES-SA/Dx5, read-out: pIC50 Dx5, absence of TQ (converted), SARM figure): 8.32 µM; IC50 (MES-SA/Dx5 cells; [15]): 12.6 µM
CCCCOCc1cc(CN2CCN(C)CC2)c(O)c2ncccc12 [Compound 10] | 7.23 ± 0.14 | 5 | 5.01 | 7.24 | 4.57 ± 0.2 | 4.57 | 2.12 ± 0.15 | 3.92 | 3.8 | 2.14 | 1.28 | 3.4 | 11.2 ± 0.37 | 11.2 | IC50 (A431 cells; [16]): 11.2 ± 0.83 µM
CCOCc1cc(CN2CCC(C)CC2)c(O)c2ncccc12 [Compound 27] | 4.09 ± 0.42 | 4.48 ± 0.37 | 4.47 | 4.07 | 2.37 ± 0.87 | 2.24 | 0.47 ± 0.05 | 3.05 ± 0.47 | 3.02 | 0.468 | 1.47 | 8.71 | 11.8 ± 4.34 | 11 | –
Oc1c(CN2CCN(c3ccccn3)CC2)cc(Cl)c2cccnc12 [Compound 43] | 2.19 ± 0.12 | 2.19 ± 0.17 | 2.19 | 2.19 | 8.06 ± 2.89 | 7.59 | 0.33 ± 0.05 | 1.23 ± 0.05 | – | 0.331 | 1.78 | 6.55 | 9.41 ± 1.41 | 9.33 | IC50 (MES-SA cells; [13]): 2.19 µM; IC50 (MES-SA cells; [14]): 2.19 µM
CC(C)OCc1cc(CN2CCOCC2)c(O)c2ncccc12 [Compound 33] | 3.12 ± 0.6 | – | – | 3.09 | 4.76 ± 0.23 | 4.79 | 1.74 ± 0.29 | – | – | 1.7 | – | 1.79 | 13.2 ± 6.23 | 12 | –
CC1CCN(Cc2cc(COC(C)C)c3cccnc3c2O)CC1 [Compound 28] | 2.84 ± 0.35 | 3.02 ± 0.09 | 3.02 | 2.82 | 1.72 ± 0.15 | 1.7 | 0.36 ± 0.04 | 2.15 ± 0.22 | 2.14 | 0.355 | 1.41 | 7.96 | 7.24 ± 1.78 | 7.08 | –
CCCOCc1cc(CN2CCN(c3ccccc3)CC2)c(O)c2ncccc12 [Compound 41] | 1.45 ± 0.13 | 1.45 ± 0.07 | 1.45 | 1.45 | 2.41 ± 0.37 | 2.4 | 0.24 ± 0.03 | 0.83 ± 0.01 | 0.832 | 0.24 | 1.74 | 6.01 | 5.69 ± 0.76 | 5.62 | IC50 (MES-SA cells; [13]): 1.45 µM; IC50 (MES-SA cells; [14]): 1.45 µM; IC50 (MES-SA/Dx5 cells; [15]): 0.955 µM
Oc1c(C(c2ccccn2)N2CCCC2)ccc2cccnc12 (centres unmarked) [Compound 84] | 17.2 ± 1.86 | – | – | 17 | – | 9.55 | 10.2 ± 0.6 | – | – | 10.2 | – | 1.69 | – | 41.7 | –
CC(=O)Nc1cc(CN2CCCCC2)c(O)c2ncccc12 [Compound 11] | 12.4 ± 1.67 | – | – | 12.3 | 58.2 ± 0.65 | – | 19.4 ± 2.33 | – | – | 19.1 | – | 0.64 | > 100 | – | –
Oc1c(CN2CCOCC2)ccc2cccnc12 [Compound 8] | 7.55 ± 0.91 | – | – | 7.41 | 6.51 ± 0.65 | – | 4.33 ± 0.31 | – | – | 4.27 | – | 1.75 | 14.5 ± 0.32 | – | SR (A431 / A431-B1) (A431-B1 cells; fraction of IC50 in P-gp negative vs positive cells): 2.23
CN1CCN(C(c2ccccn2)c2cc(Cl)c3cccnc3c2O)CC1 (centres unmarked) [Compound 114] | 16 ± 1.31 | – | – | 15.8 | – | 17.4 | 13.9 ± 0.46 | – | – | 13.8 | – | 1.15 | – | 49 | –
Oc1c(CN2CCCC2)ccc2cccnc12 [Compound 2] | 4.64 ± 0.82 | 3.98 | 3.98 | 4.57 | – | 3.16 | 1.47 ± 0.25 | 2.82 | 2.82 | 1.45 | 1.41 | 3.16 | 18.2 ± 1.02 | 16.6 | IC50 (A431 cells; [16]): 17.1 ± 4.65 µM
Oc1c(CN2CCN(c3ccc(F)cc3)CC2)cc(Cl)c2cccnc12 [Compound 44] | 1.61 ± 0.3 | 1.75 ± 0.16 | 1.74 | 1.58 | 3.25 ± 0.94 | 3.09 | 0.25 ± 0.01 | 0.65 ± 0.05 | 0.646 | 0.245 | 2.7 | 6.56 | 4.04 ± 0.39 | 3.98 | SR (MES-SA_TQ / Dx5_TQ) (values in parentheses) (MES-SA/Dx5 cells; fraction of IC50 in P-gp negative vs positive cells, presence of 1 μM TQ): 2.70
CCOCc1cc(CN2CCN(C)CC2)c(O)c2ncccc12 [Compound 36] | 23 ± 1.46 | 22.9 ± 1.08 | 22.9 | 22.9 | 24.1 ± 10.1 | 22.4 | 7.43 ± 0.46 | 17.1 ± 2.19 | 17 | 7.41 | 1.34 | 3.09 | 66.6 ± 20.8 | 63.1 | IC50 (MES-SA cells; [13]): 22.9 µM; IC50 (MES-SA cells; [14]): 22.9 µM
CC(C)OCc1cc(CN2CCN(c3ccccc3)CC2)c(O)c2ncccc12 [Compound 42] | 1.06 ± 0.19 | 1.01 ± 0.16 | 1 | 1.05 | 1.84 ± 0.48 | 1.78 | 0.25 ± 0.05 | 0.66 ± 0.13 | 0.646 | 0.245 | 1.54 | 4.24 | 7.35 ± 2.49 | 6.92 | –
Oc1c(C(c2ccccn2)N2CCCC2)cc(Cl)c2cccnc12 (centres unmarked) [Compound 90] | 12 ± 1.5 | – | 5.89 | 12 | – | 13.2 | 6.3 ± 0.15 | – | 3.31 | 6.31 | 1.78 | 1.91 | – | 49 | –
Oc1c(CN2CCCCCC2)cc(Cl)c2cccnc12 [Compound 53] | 2.76 ± 0.14 | 2.64 ± 0.27 | 2.63 | 2.75 | 2.94 ± 1.69 | 2.57 | 0.33 ± 0.06 | 2 ± 0.19 | 2 | 0.324 | 1.32 | 8.4 | 5.57 ± 1.08 | 5.5 | –
COCc1cc(CN2CCN(c3ccccc3)CC2)c(O)c2ncccc12 [Compound 39] | 1.08 ± 0.15 | 1.2 ± 0.05 | 1.2 | 1.07 | 2.33 ± 0.35 | 2.29 | 0.48 ± 0.07 | 0.85 ± 0.08 | 0.851 | 0.479 | 1.41 | 2.23 | 9.99 ± 4.76 | 8.91 | –
